Source: publication PMC11130353, “Using host-mimicking conditions and a murine cutaneous abscess model to identify synergistic antibiotic combinations effective against Pseudomonas aeruginosa” (Frontiers in Cellular and Infection Microbiology, 2024)
Converted amounts (≈) assume the structure as drawn. “Also recorded” adds a separate entry of the source. Read-outs that look alike come from different tables or passages of the source.

Experiments:
[1] = tested on: P. aeruginosa LESB58; assay: microbe, parasite or virus in culture; type: cell-based, Pseudomonas aeruginosa; settings: for Fold change TCM vs MHB (MIC): MIC in TCM vs MIC in MHB; for MIC: Pseudomonas aeruginosa
Procedure: (§1) For susceptibility testing under standard conditions, bacteria were cultured in Muller Hinton Broth MHB (Fort Richards Laboratories). […] Further susceptibility testing was also conducted in MHB supplemented with FBS (5% v/v) and DMEM supplemented with glucose (1% w/v) and MHB (10% v/v).
The minimum inhibitory concentration (MIC) of each antibiotic was determined using the broth microdilution method in 96-well plates. […] Briefly, antibiotics were two-fold serially diluted in MHB or TCM prior to adding 1 × 10^6 CFU mL^-1 bacteria. […] The MIC was recorded as the lowest antibiotic concentration with no visible growth and the median value of at least three biological replicates reported.

[2] = tested on: P. aeruginosa PAO1; assay: Minimum inhibitory concentration, broth microdilution; type: cell-based, Pseudomonas aeruginosa; settings: for Fold change TCM vs MHB (MIC): MIC in TCM vs MIC in MHB; for MIC: Pseudomonas aeruginosa, PAO1
Procedure: as §1
The minimum inhibitory concentration (MIC) of each antibiotic was determined using the broth microdilution method in 96-well plates. […] Briefly, antibiotics were two-fold serially diluted in MHB or TCM prior to adding 1 × 10^6 CFU mL^-1 bacteria. Plates were incubated at 37°C for 22-24 hours. The MIC was recorded as the lowest antibiotic concentration with no visible growth and the median value of at least three biological replicates reported.

[3] = Procedure: Mice used in this study were female Swiss Webster aged approximately 6-7 weeks and sourced from the University of Otago Biomedical Research Facility. […] Briefly, the fur on the back of each mouse was removed by shaving and chemical depilation. Antibiotics were tested for skin toxicity by injecting 50 μL of antibiotic suspension subcutaneously into naïve mice, and subsequent inspection of the skin for inflammation on the next day. P. aeruginosa LESB58 was grown to mid-log phase in dYT broth, washed twice in sterile PBS (Gibco, pH 7.4), and resuspended in PBS to ~1 x 10^8 CFU per 50 μL inoculum. The bacterial suspension (50 μL) was injected subcutaneously into the right side of the dorsum, followed one hour later by 50 μL of antibiotic treatment injected directly into the infected area. […] Combination treatments were administered as a single 50 μL injection containing both antibiotics. The concentration of each antibiotic in the combination was the same as when it was used alone. Progression of the infection was monitored daily, and abscess dimensions were measured on day three using a calliper. On day three, abscess tissue and pus were excised, homogenized in sterile PBS using SPEX SamplePrep 1600 MiniG for five minutes and bacterial CFU counts determined by serial dilution.
[4] = tested on: P. aeruginosa LESB58; assay: In vitro synergy, checkerboard assay; type: cell-based, Pseudomonas aeruginosa; settings: MHB; for FICI, drug combined with CAZ / FICI, drug combined with CZA: FICI <= 0.5 indicates synergy
Procedure: (§2) For susceptibility testing under standard conditions, bacteria were cultured in Muller Hinton Broth MHB (Fort Richards Laboratories). Host mimicking conditions in vitro were simulated using tissue culture medium (TCM) consisting of Dulbecco’s modified Eagle medium (DMEM; Gibco #11965) supplemented with FBS (Moregate Biotech) (5% v/v) and glucose (1% w/v). Further susceptibility testing was also conducted in MHB supplemented with FBS (5% v/v) and DMEM supplemented with glucose (1% w/v) and MHB (10% v/v).
(§3) The P. aeruginosa LESB58.lux strain was used for in vitro synergy experiments with azithromycin in MHB and all antibiotic combinations in TCM to determine bacterial growth (as visual inspection and absorbance measurements were unreliable). Synergy was determined using the checkerboard method ([Berenbaum, 1978]; [Pletzer and Hancock, 2018]) in at least triplicate. Each antibiotic was two-fold serially diluted in sterile water before transferring to a 96-well plate containing 1 × 10^6 CFU mL^-1 bacteria in MHB or TCM. Plates were incubated at 37°C for 22-24 hours. The MIC alone or in combination was recorded as the lowest antibiotic concentration with no visible growth. For experiments using the LESB58.lux strain no visible growth was defined as an at least 95% reduction compared to the no antibiotic growth control in luminescence detected using a ClarioStar plate reader. The fractional inhibitory concentration index (FICI) was calculated as [(MICA in combination)/MICA] + [(MICB in combination)/MICB]. FICI values of 0.5 or below indicated synergy, while values above 0.5 up to and including 1 were taken to indicate additivity. FICI values above 1 indicate indifference or antagonism ([Odds, 2003]).

[5] = tested on: P. aeruginosa LESB58-lux; assay: In vitro synergy, checkerboard assay (luminescence readout); type: cell-based, Pseudomonas aeruginosa; settings: TCM; for FICI, drug combined with CAZ / FICI, drug combined with CZA: FICI <= 0.5 indicates synergy
Procedure: as §2, §3

[6] = tested on: P. aeruginosa LESB58; assay: Murine high density subcutaneous skin abscess model; type: in vivo, Pseudomonas aeruginosa; settings: Colistin
Procedure: Mice used in this study were female Swiss Webster aged approximately 6-7 weeks and sourced from the University of Otago Biomedical Research Facility. […] The subcutaneous abscess infection model was performed as previously described ([Pletzer et al., 2017]) with a higher inoculum. Briefly, the fur on the back of each mouse was removed by shaving and chemical depilation. Antibiotics were tested for skin toxicity by injecting 50 μL of antibiotic suspension subcutaneously into naïve mice, and subsequent inspection of the skin for inflammation on the next day. P. aeruginosa LESB58 was grown to mid-log phase in dYT broth, washed twice in sterile PBS (Gibco, pH 7.4), and resuspended in PBS to ~1 x 10^8 CFU per 50 μL inoculum. The bacterial suspension (50 μL) was injected subcutaneously into the right side of the dorsum, followed one hour later by 50 μL of antibiotic treatment injected directly into the infected area. […] Combination treatments were administered as a single 50 μL injection containing both antibiotics. The concentration of each antibiotic in the combination was the same as when it was used alone. Progression of the infection was monitored daily, and abscess dimensions were measured on day three using a calliper. On day three, abscess tissue and pus were excised, homogenized in sterile PBS using SPEX SamplePrep 1600 MiniG for five minutes and bacterial CFU counts determined by serial dilution. In this model, synergy was defined as being a significant difference between the combination treated group and the amalgamated group of single drug treated animals ([Fantin and Carbon, 1992]; [Pletzer et al., 2018]).
Statistical analysis was performed using GraphPad Prism 9.5.1. Bacterial CFU and abscess size data from in vivo experiments was analysed by Kruskal-Wallace test with Dunn’s correction for multiple comparisons. The data was considered significant when p-values were below 0.05 or 0.01 as indicated.

[7] = LESB58, read-out: MIC in MHB, MHB, 20-24 h
[8] = LESB58, read-out: MIC in TCM, TCM (DMEM + 1% glucose + 5% FBS), 20-24 h
[9] = 50 μL injected subcutaneously, skin inspected next day
[10] = tigecycline and tobramycin groups, compared to the vehicle control, day 3

C[C@H]1[C@H](NC(=O)/C(=N\OC(C)(C)C(=O)O)c2csc(N)n2)C(=O)N1S(=O)(=O)O [ATM, aztreonam]
Fold change TCM vs MHB (MIC) [1]: 8 | MIC [1, 7]: 62.5 µg/mL (≈ 144 µM) | MIC [1, 8]: 500 µg/mL | Fold change TCM vs MHB (MIC) [2]: 1 | MIC ([2]; read-out: MIC in MHB): 12.5 µg/mL (≈ 28.7 µM) | MIC ([2]; read-out: MIC in TCM): 12.5 µg/mL (≈ 28.7 µM) | Highest tolerated dose tested [3, 9]: 25 mg/mL | Fold decrease in CAZ MIC, drug combined with CAZ [4]: 2 | Fold decrease in CZA MIC, drug combined with CZA [4]: 2 | Fold decrease in other MIC, drug combined with CAZ [4]: 4 | Fold decrease in other MIC, drug combined with CZA [4]: 4 | FICI, drug combined with CAZ [4]: 0.75 | FICI, drug combined with CZA [4]: 0.75

O=C(O)c1cn(C2CC2)c2cc(N3CCNCC3)c(F)cc2c1=O [CIP, ciprofloxacin]
MIC [1, 7]: 3.13 µg/mL (≈ 9.45 µM) | MIC [1, 8]: 50 µg/mL | Ceftazidime-avibactam MIC in combination with the named drug [5]: 4 µg/mL | FICI, drug combined with CAZ ([5]; LESB58-lux): 0.63 | FICI, drug combined with CZA ([5]; LESB58-lux): 0.63 | MIC ([2]; read-out: MIC in MHB): 0.156 µg/mL (≈ 0.471 µM) | MIC ([2]; read-out: MIC in TCM): 1.25 µg/mL (≈ 3.77 µM) | Highest tolerated dose tested [3, 9]: 40 mg/mL | FICI, drug combined with CAZ [4]: 0.5 | FICI, drug combined with CZA [4]: 0.5

Cn1c(N)c(NC(=O)NCCN)c[n+]1CC1=C(C(=O)O)N2C(=O)[C@@H](NC(=O)/C(=N\OC(C)(C)C(=O)[O-])c3nsc(N)n3)[C@H]2SC1 [Ceftolozane]
Highest tolerated dose tested [3, 9]: 50 mg/mL

CNC(C)C1CCC(N)C(OC2C(N)CC(N)C(OC3OCC(C)(O)C(NC)C3O)C2O)O1 (stereo not drawn) [GEN, gentamicin]
Fold change TCM vs MHB (MIC) [1]: 20 | MIC [1, 7]: 25 µg/mL (≈ 52.3 µM) | MIC [1, 8]: 500 µg/mL | Fold change TCM vs MHB (MIC) [2]: 16 | MIC ([2]; read-out: MIC in MHB): 1.56 µg/mL (≈ 3.27 µM) | MIC ([2]; read-out: MIC in TCM): 25 µg/mL (≈ 52.3 µM) | Highest tolerated dose tested [3, 9]: 20 mg/mL | Toxic (visible skin irritation, inflammation, blood vessels, swelling) [3, 9]: 40 mg/mL | Fold decrease in CAZ MIC, drug combined with CAZ [4]: 8 | Fold decrease in CZA MIC, drug combined with CZA [4]: 8 | Fold decrease in other MIC, drug combined with CAZ [4]: 8 | Fold decrease in other MIC, drug combined with CZA [4]: 8 | FICI, drug combined with CAZ [4]: 0.25

C[C@@H](O)[C@H]1C(=O)N2C(C(=O)O)=C(S[C@@H]3CN[C@H](C(=O)N(C)C)C3)[C@H](C)[C@H]12 [MEM]
Toxic (visible skin irritation, inflammation, blood vessels, swelling) [3, 9]: 20 mg/mL | Highest tolerated dose tested ([3]; mouse, in vivo, sc): 10 mg/mL

NC[C@H]1O[C@H](O[C@H]2[C@H](O)[C@@H](O[C@H]3O[C@H](CO)[C@@H](O)[C@H](N)[C@H]3O)[C@H](N)C[C@@H]2N)[C@H](N)C[C@@H]1O [TOB, tobramycin]
Fold change TCM vs MHB (MIC) [1]: 20 | MIC [1, 7]: 3.13 µg/mL (≈ 6.69 µM) | MIC [1, 8]: 62.5 µg/mL | Fold decrease in CAZ MIC, drug combined with CAZ ([5]; LESB58-lux): 8 | Fold decrease in CZA MIC, drug combined with CZA ([5]; LESB58-lux): 2 | Fold decrease in other MIC, drug combined with CAZ ([5]; LESB58-lux): 4 | Fold decrease in other MIC, drug combined with CZA ([5]; LESB58-lux): 8 | FICI, drug combined with CAZ ([5]; LESB58-lux): 0.38 | FICI, drug combined with CZA ([5]; LESB58-lux): 0.63 | FICI, drug combined with CAZ ([5]; LESB58-lux, listed as tobramycin): synergised; also recorded: retained | Fold change TCM vs MHB (MIC) [2]: 40 | MIC ([2]; read-out: MIC in MHB): 0.625 µg/mL (≈ 1.34 µM) | MIC ([2]; read-out: MIC in TCM): 25 µg/mL (≈ 53.5 µM) | Fold decrease in CAZ MIC, drug combined with CAZ [4]: 4 | Fold decrease in CZA MIC, drug combined with CZA [4]: 4 | Fold decrease in other MIC, drug combined with CAZ [4]: 8 | Fold decrease in other MIC, drug combined with CZA [4]: 8 | FICI, drug combined with CAZ [4]: 0.38 | FICI, drug combined with CAZ ([4]; listed as tobramycin): < 0.4 | FICI, drug combined with CZA ([4]; listed as tobramycin): < 0.4 | Area of dermoncecrosis, Mean ([6]; tigecycline and tobramycin groups (shared vehicle, CAZ and CZA mice), female Swiss Webster mice, 50 μL s.c. 1 h after infection, day 3, CAZ or CZA 50, CST 1.25, TGC 2.5, TOB 2 mg/mL, vehicle 0.9% saline): 55.6 mm^2 | Area of dermoncecrosis, % reduction [6, 10]: 40.9% | CFU per abscess, Fold change [6, 10]: -5.4 | Area of dermoncecrosis, % reduction ([6]; tigecycline and tobramycin groups, compared to the vehicle control, day 3, listed as tobramycin): 41% | CFU per abscess, Geometric mean ([6]; tigecycline and tobramycin groups, day 3): 4.5 × 10^7 CFU per abscess | Fold reduction of bacterial load (CFU) relative to vehicle ([6]; tigecycline, tobramycin experiments): ~5

C[C@]1(Cn2ccnn2)[C@H](C(=O)O)N2C(=O)C[C@H]2S1(=O)=O [Tazobactam]
Highest tolerated dose tested ([3]; female, Swiss Webster, mouse, in vivo, sc, 1 day): 25 mg/mL
